Assay results as given in US20260217667A1, “AMYLOID TARGETING AGENTS” (Amydis, Inc., priority 2023, published 2026).

Key:
4RTau = test: Fluorescence emission spectra of compounds with and without aggregated 4RTau; format: binding
Experimental: (§1) Emission spectra for compound 1 and compound 1a were collected after incubation of the compounds with and without aggregated amyloidogenic protein at specific excitation wavelengths (450 nm and 488 nm) employed in standard ocular imaging equipment. Amyloidogenic proteins (synthetic aggregated amyloid beta (Aβ), α-synuclein (ASYN), transthyretin (TTR), TAR DNA-binding protein 43 (TDP43), and phosphorylated tau (TAU)) were aggregated in vitro using the following procedure. The amyloidogenic protein was removed from the freezer and allowed to warm to room temperature, then 1 mg of amyloidogenic protein was dissolved in 215 μL of ddH2O for about 10-20 mins at room temperature. To the resulting solution, 2 mL of ddH2O was added to provide a 100 μM stock solution. A 100 μL aliquot was sampled and frozen (non-aggregated sample). The tubes were placed in a thermoshaker at 350 rpm for 3 days. Care was taken to avoid generating bubbles. Protein aggregation was confirmed by measuring binding to Thioflavin T (ThT). Aggregated protein was then portioned into 150 μL aliquots and stored at −80° C. The fluorescent emission spectra were measured as follows to determine binding of synthetic aggregated amyloid beta (Aβ), α-synuclein (ASYN), transthyretin (TTR), TAR DNA-binding protein 43 (TDP43), and phosphorylated tau (TAU) to test compounds described herein. The Shimadzu fluorimeter was turned on and allowed to warm up for ~60 minutes. The test compounds were then removed from the −20° C. freezer and were allowed to warm to room temperature. The 100 μM aggregated Aβ solution was then removed from the −80° C. freezer and also allowed to warm to room temperature. 250 μM solutions of each test compound in DMSO were then prepared. These were then used to prepare 4 μM solutions of each test compound, with and without 5 μM aggregated Aβ in 1×PBS, in triplicates. Using a cuvette, the fluorescent emission spectra were measured for each test compound+Aβ solution, employing a DMSO/PBS solution as a blank. Each sample was tested at an excitation of 450 nm and 488 nm. Fluorescent emission spectra were then collected for each 4 μM test compound solution alone. The resulting data were used to plot intensity vs. wavelength for each emission scan. The fold increase at maximum emission (compound+Aβ/compound) is calculated for each test compound.

transthyretin (TTR) = transthyretin (TTR) (Homo sapiens, UniProt P02766); test: Fluorescence emission spectra of compounds with and without aggregated transthyretin; format: binding
Experimental: as §1

3RTau = test: Fluorescence emission spectra of compounds with and without aggregated 3RTau; format: binding
Experimental: as §1

[1] = target: TAR DNA-binding protein 43 (TDP43) (Homo sapiens, UniProt Q13148); test: Fluorescence emission spectra of compounds with and without aggregated TDP43
Experimental: as §1

[2] = test system: amyloidogenic aggregates (Aβ, ASYN, TTR, TDP43, 3RTau, and 4RTau); test: In vitro binding to amyloidogenic aggregates, summary statement; details: excitation 450 nm or 488 nm
Experimental: Amyloidogenic proteins (synthetic aggregated amyloid beta (Aβ), α-synuclein (ASYN), transthyretin (TTR), TAR DNA-binding protein 43 (TDP43), and phosphorylated tau (TAU)) were aggregated in vitro using the following procedure. The amyloidogenic protein was removed from the freezer and allowed to warm to room temperature, then 1 mg of amyloidogenic protein was dissolved in 215 μL of ddH2O for about 10-20 mins at room temperature. To the resulting solution, 2 mL of ddH2O was added to provide a 100 μM stock solution. A 100 μL aliquot was sampled and frozen (non-aggregated sample). The tubes were placed in a thermoshaker at 350 rpm for 3 days. Care was taken to avoid generating bubbles. Protein aggregation was confirmed by measuring binding to Thioflavin T (ThT). Aggregated protein was then portioned into 150 μL aliquots and stored at −80° C.
The fluorescent emission spectra were measured as follows to determine binding of synthetic aggregated amyloid beta (Aβ), α-synuclein (ASYN), transthyretin (TTR), TAR DNA-binding protein 43 (TDP43), and phosphorylated tau (TAU) to test compounds described herein. […] Using a cuvette, the fluorescent emission spectra were measured for each test compound+Aβ solution, employing a DMSO/PBS solution as a blank. […] The fold increase at maximum emission (compound+Aβ/compound) is calculated for each test compound. […]

[3] = target: T1, synthetic aggregated amyloid beta (Aβ) (Homo sapiens, UniProt P05067); test: Fluorescence emission spectra of compounds with and without aggregated amyloid beta; format: binding; details: for Fold Increase at maximum emission (compound+Aβ/compound): 4 μM compound, 5 μM aggregated Aβ in 1×PBS; for Peak emission: aggregated Aβ
T1 construct: synthetic aggregated amyloid beta (Aβ)
Experimental: as §1

α-synuclein (ASYN) = α-synuclein (ASYN) (Homo sapiens, UniProt P37840); test: Fluorescence emission spectra of compounds with and without aggregated α-synuclein; format: binding
Experimental: as §1

T1 sequence (P05067 672-713 limits assumed): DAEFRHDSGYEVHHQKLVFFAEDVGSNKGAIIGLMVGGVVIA
Chain of TAR DNA-binding protein 43 (TDP43) (Q13148 whole entry): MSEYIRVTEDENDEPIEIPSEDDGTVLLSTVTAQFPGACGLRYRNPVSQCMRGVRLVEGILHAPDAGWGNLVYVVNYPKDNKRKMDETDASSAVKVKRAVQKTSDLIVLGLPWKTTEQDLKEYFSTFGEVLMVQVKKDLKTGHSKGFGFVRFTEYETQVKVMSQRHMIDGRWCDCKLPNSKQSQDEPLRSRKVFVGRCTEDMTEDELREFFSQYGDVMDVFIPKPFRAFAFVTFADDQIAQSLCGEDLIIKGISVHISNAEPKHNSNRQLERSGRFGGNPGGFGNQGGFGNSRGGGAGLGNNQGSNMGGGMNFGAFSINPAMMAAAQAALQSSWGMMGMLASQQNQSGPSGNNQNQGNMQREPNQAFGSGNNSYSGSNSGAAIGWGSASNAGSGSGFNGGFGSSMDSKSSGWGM

Fold Increase at maximum emission (transthyretin (TTR); excitation 450 nm)	Peak emission (transthyretin (TTR); excitation 450 nm)	Fold Increase at maximum emission (transthyretin (TTR); excitation 488 nm)	Peak emission (transthyretin (TTR); excitation 488 nm)	Fold Increase at maximum emission ([1]; excitation 450 nm)	Peak emission ([1]; excitation 450 nm)	Fold Increase at maximum emission ([1]; excitation 488 nm)	Peak emission ([1]; excitation 488 nm)	Binding to all amyloidogenic aggregates tested [2]	Fold Increase at maximum emission (compound+Aβ/compound) ([3]; excitation 450 nm)	Peak emission ([3]; excitation 450 nm)	Fold Increase at maximum emission (compound+Aβ/compound) ([3]; excitation 488 nm)	Peak emission ([3]; excitation 488 nm)	Fold Increase at maximum emission (α-synuclein (ASYN); excitation 450 nm)	Peak emission (α-synuclein (ASYN); excitation 450 nm)	Fold Increase at maximum emission (α-synuclein (ASYN); excitation 488 nm)	SMILES	Fold Increase at maximum emission (4RTau; excitation 450 nm)	Fold Increase at maximum emission (4RTau; excitation 488 nm)	Fold Increase at maximum emission (3RTau; excitation 450 nm)	Fold Increase at maximum emission (3RTau; excitation 488 nm)	other results
5.18	553	7.21	560	15.33	547	18.32	556	successfully bound	10.16	559	9.11	556	105.50	552	109.97	N#C/C(=C\c1ccc2cc(N3CCCCC3)ccc2c1)C(=O)CCCOCCOCCO [Compound 1, (E)-6-(2-(2-hydroxyethoxy)ethoxy)-3-oxo-2-((6-(piperidin-1-yl)naphthalen-2-yl)methylene)hexanenitrile]	14.35	29.25	68.04	69.31	Peak emission (α-synuclein (ASYN); excitation 488 nm): 557
4.67	550	7.35	557	23.23	551	20.40	551	successfully bound	9.48	554	19.60	559	120.92	554	190.64	N#C/C(=C\c1ccc2cc(N3CCCCC3)ccc2c1)C(=O)CCC(O)CO (stereo not drawn) [Compound 1a, (E)-6,7-dihydroxy-3-oxo-2-((6-(piperidin-1-yl)naphthalen-2-yl)methylene)heptanenitrile]	22.19	22.48	84.37	103.65	Peak emission (α-synuclein (ASYN); excitation 488 nm): 554
